# Literature values as cited in patent publication US9687472B2, “Use of antioxidants as an adjuvant to immune stimulators to augment tumor immunity and prevent toxicity associated with oxidative stress” (BATU BIOLOGICS, priority 2014, dated 2017).
# B1: C1 esterase inhibitor: complement inhibitor (protein, UniProt P05155 23-500, looked up)
# Plasma protease C1 inhibitor: NPNATSSSSQDPESLQDRGEGKVATTVISKMLFVEPILEVSSLPTTNSTTNSATKITANTTDEPTTQPTTEPTTQPTIQPTQPTTQLPTDSPTQPTTGSFCPGPVTLCSDLESHSTEAVLGDALVDFSLKLYHAFSAMKKVETNMAFSPFSIASLLTQVLLGAGENTKTNLESILSYPKDFTCVHQALKGFTTKGVTSVSQIFHSPDLAIRDTFVNASRTLYSSSPRVLSNNSDANLELINTWVAKNTNNKISRLLDSLPSDTRLVLLNAIYLSAKWKTTFDPKKTRMEPFHFKNSVIKVPMMNSKKYPVAHFIDQTLKAKVGQLQLSHNLSLVILVPQNLKHRLEDMEQALSPSVFKAIMEKLEMSKFQPTLLTLPRIKVTTSQDMLSIMEKLEFFDFSYDLNLCGLTEDPDLQVSAMQHQTVLELTETGVEAAAASAISVARTLLVFEVQQPFLFVLWDQQHKFPVFMGRVYDPRA
# Tests used:
# [1] = tested on: human endothelial cells; settings: hypoxic (24 hours; 1% O(2))/reoxygenated (3 hours; 21% O(2)) cells
# [2] = tested on: endothelial cell; settings: in vitro
# [3] = tested on: human umbilical vein endothelial (HUVEC) cells; settings: in response to TNF-alpha, in vitro
# [4] = i.v. 66 mg/kg/hr for 24 hours
# [5] = tested on: circulating apoptotic endothelial cells; settings: 2.5 g intravenously and 3 days of 4 g per day oral
# [6] = 10 mg/kg intravenously before induction of sepsis
# [7] = tested on: complement system; settings: patients
molecule,measurement,setting,value
CC(=O)N[C@H]1C(O)O[C@H](CO)[C@@H](O)[C@@H]1O (stereo partly drawn) [N-acetyl-D-glucosamine],complement activation (iC3b deposition),[1],blocked activation
O=C[C@@H](O)[C@@H](O)[C@H](O)[C@H](O)CO [D-mannose],complement activation (iC3b deposition),[1],blocked activation
O=C[C@H](O)[C@H](O)[C@@H](O)[C@@H](O)CO [L-mannose],complement activation (iC3b deposition),[1],not
"O=C1O[C@H]([C@@H](O)CO)C(O)=C1O [AA, ascorbic acid]",TNF-alpha induced endothelial cell apoptosis,[2],reduction
same,endothelial cell expression of ICAM-1,[3],reduce
same,24 hr total fluid infusion volume,[4],statistically significant reductions
same,fluid retention (indicative of vascular leakage),[4],statistically significant reductions
same,need for mechanical ventilation,[4],12.1 ± 8.8 days
same,circulating apoptotic endothelial cells,[5],reduction
same,survival,[6],50%
B1,IL-2 induced hypotension and complement activation,[7],capable of reducing
